The target in data set [1] is T1, Ubiquitin carboxyl-terminal hydrolase 8 (Homo sapiens) (UniProt P40818).
T1 sequence (whole entry): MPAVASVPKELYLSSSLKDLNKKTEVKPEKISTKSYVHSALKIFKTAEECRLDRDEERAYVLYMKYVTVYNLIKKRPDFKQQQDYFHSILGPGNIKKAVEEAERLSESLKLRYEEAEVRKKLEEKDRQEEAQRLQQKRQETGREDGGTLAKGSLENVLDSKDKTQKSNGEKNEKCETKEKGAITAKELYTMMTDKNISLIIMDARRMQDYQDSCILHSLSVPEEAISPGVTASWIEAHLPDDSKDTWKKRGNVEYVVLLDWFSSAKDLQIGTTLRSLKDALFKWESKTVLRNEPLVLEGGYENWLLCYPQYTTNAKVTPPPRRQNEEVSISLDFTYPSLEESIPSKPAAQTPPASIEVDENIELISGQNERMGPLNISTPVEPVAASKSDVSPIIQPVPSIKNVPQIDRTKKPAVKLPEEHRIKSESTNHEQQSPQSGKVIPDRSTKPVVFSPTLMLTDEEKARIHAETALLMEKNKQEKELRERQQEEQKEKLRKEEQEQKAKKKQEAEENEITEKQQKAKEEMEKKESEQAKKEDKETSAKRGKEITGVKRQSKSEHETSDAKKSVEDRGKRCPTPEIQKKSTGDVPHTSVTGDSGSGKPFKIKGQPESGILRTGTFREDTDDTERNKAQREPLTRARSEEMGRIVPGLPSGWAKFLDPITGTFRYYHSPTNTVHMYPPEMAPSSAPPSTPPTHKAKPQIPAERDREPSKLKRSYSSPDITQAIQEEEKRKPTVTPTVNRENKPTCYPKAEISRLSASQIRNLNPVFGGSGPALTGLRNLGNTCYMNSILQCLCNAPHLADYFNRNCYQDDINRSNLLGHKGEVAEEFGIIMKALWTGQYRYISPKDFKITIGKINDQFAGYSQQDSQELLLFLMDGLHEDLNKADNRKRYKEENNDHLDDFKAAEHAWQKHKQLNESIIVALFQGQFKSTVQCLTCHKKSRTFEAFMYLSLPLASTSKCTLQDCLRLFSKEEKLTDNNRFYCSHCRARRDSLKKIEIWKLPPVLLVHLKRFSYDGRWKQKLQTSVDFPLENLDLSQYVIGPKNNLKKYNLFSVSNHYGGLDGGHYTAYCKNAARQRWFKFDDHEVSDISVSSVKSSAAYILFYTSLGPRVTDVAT
Nature of the data set: Inhibition of N-terminal His6-tagged USP8 catalytic domain (734 to 1110 residues) in HEK293T intact cells up to 100 uM in presence of HA-Ub-VS probe by USP8 antibody based Western blotting assay. Type of data set: cell-based. (Immunoblotting shows a protein as a band on a membrane.)

The subject of data set [2] is MCF7. Nature of the data set: Induction of apoptosis in human MCF7 cells assessed as increase in apoptotic cells at 5 uM incubated for 12 hrs by AnnexinV-FITC/propidium iodide staining based flow cytometry relative to control (reference value: 2.00 %). Type of data set: functional. For orientation: Flow cytometry measures light scatter and fluorescence of single cells or particles in a stream.

In data set [3] the target is T1, Ubiquitin carboxyl-terminal hydrolase 8 (Homo sapiens). The data set can be described thus: Inhibition of N-terminal His6-tagged USP8 catalytic domain (734 to 1110 residues) in HEK293T cell lysates up to 100 uM in presence of HA-Ub-VS probe by HA antibody based Western blotting assay. Type of data set: subcellular.
For data set [4], the system named is MCF7. Nature of the data set: Downregulation of progesterone receptor expression in human MCF7 cells measured after 24 hrs by Western blotting analysis. Type of data set: functional, cell-based. The note with it: dose 0.5-5 µM, DDE = dose-dependent effect.
For data set [5], the system named is MCF7. Nature of the data set: Antitumor activity against human MCF7 cells xenografted in BALB/c mouse assessed as reduction of ErbB3 phosphorylation in tumor tissue at 5 to 20 mg/kg, ip administered via gavage every other day for 14 days by immunohistochemistry analysis. Type of data set: functional, organism-based. Conditions: dose 5-20 mg/kg, time 14.0 day. For orientation: In xenograft studies the graft and the host belong to different species.

The test system of data set [6] is MCF7. The data set can be described thus: Downregulation of ERalpha expression in human MCF7 cells measured after 24 hrs by Western blotting analysis. Type of data set: functional, cell-based. Conditions: dose 0.5-5 µM, DDE = dose-dependent effect.
Data set [7] concerns MCF7. Nature of the data set: Induction of apoptosis in human MCF7 cells assessed as increase in apoptotic cells at 1 uM incubated for 12 hrs by AnnexinV-FITC/propidium iodide staining based flow cytometry relative to control (reference value: 2.00 %). Type of data set: functional.
In data set [8] the target is T2, Ubiquitin carboxyl-terminal hydrolase 8 (Homo sapiens, UniProt P40818).
T2 sequence (P40818 whole entry): T1 sequence (whole entry)
Nature of the data set: Binding affinity to N-terminal His6-tagged USP8 catalytic domain (734 to 1110 residues) (unknown origin) expressed in Escherichia coli BL21 (DE3) cells by surface plasmon resonance method.

Data set [9] deals with T1, Ubiquitin carboxyl-terminal hydrolase 8 (Homo sapiens). Nature of the data set: Inhibition of N-terminal His6-tagged USP8 catalytic domain (734 to 1110 residues) in HEK293T intact cells up to 100 uM in presence of HA-Ub-VS probe by HA antibody based Western blotting assay. Type of data set: cell-based.
Data set [10] in a line: Toxicity in BALB/c mouse xenografted with human MCF7 cells assessed as change in body weight at 5 to 20 mg/kg, […] every other day for 14 days. The note with it: in vivo, 336 h, dose 5-20 mg/kg, time 14 day. Type of data set: organism-based.
In data set [11] the test system is MCF7. The data set can be described thus: Downregulation of ERalpha mRNA level in human MCF7 cells up to 5 uM measured after 24 hrs by RT-qPCR analysis. Type of data set: functional, cell-based.
For data set [12], the system named is MCF7. The data set can be described thus: Antitumor activity against human MCF7 cells xenografted in BALB/c mouse assessed as reduction of EGFR phosphorylation in tumor tissue at 5 to 20 mg/kg, ip administered via gavage every other day for 14 days by immunohistochemistry analysis. Type of data set: functional, organism-based. The note with it: dose 5-20 mg/kg, time 14.0 day.

For data set [13], the system named is MCF7. The data set can be described thus: Induction of apoptosis in human MCF7 cells assessed as increase in apoptotic cells at 0.2 uM incubated for 12 hrs by AnnexinV-FITC/propidium iodide staining based flow cytometry relative to control (reference value: 2.00 %). Type of data set: functional.
Data set [14] in a line: Toxicity in BALB/c mouse xenografted with human MCF7 cells assessed as effect on kidney at 5 to 20 mg/kg, […] every other day measured after 14 days by hematoxylin and eosin staining based analysis. Type of data set: organism-based. The note with it: in vivo, 336 h, dose 5-20 mg/kg, time 14 day.
The species entered for a further data set is Homo sapiens. Nature of the data set: Selectivity ratio of IC50 for USP2 (unknown origin) catalytic domain to IC50 for USP8 (unknown origin) catalytic domain.
A short description of data set [15]: Toxicity in BALB/c mouse xenografted with human MCF7 cells assessed as effect on alanine aminotransferase level at 5 to 20 mg/kg, […] every other day measured after 14 days. Type of data set: organism-based. Conditions: in vivo, 336 h, dose 5-20 mg/kg, time 14 day.
A short description of data set [16]: Toxicity in BALB/c mouse xenografted with human MCF7 cells assessed as effect on heart at 5 to 20 mg/kg, […] every other day measured after 14 days by hematoxylin and eosin staining based analysis. Type of data set: organism-based. The note with it: in vivo, 336 h, dose 5-20 mg/kg, time 14 day.
Data set [17] concerns MCF7. The data set can be described thus: Induction of apoptosis in human MCF7 cells assessed as reduction in ErbB2 expression level up to 5 uM incubated for 24 hrs by Western blotting analysis. Type of data set: functional, cell-based.
A short description of data set [18]: Toxicity in BALB/c mouse xenografted with human MCF7 cells assessed as effect on spleen at 5 to 20 mg/kg, […] every other day measured after 14 days by hematoxylin and eosin staining based analysis. Type of data set: organism-based. The note with it: in vivo, 336 h, dose 5-20 mg/kg, time 14 day.
Data set [19] concerns MCF7. The data set can be described thus: Downregulation of progesterone receptor mRNA level in human MCF7 cells up to 5 uM measured after 24 hrs by RT-qPCR analysis. Type of data set: functional, cell-based.
In data set [20] the test system is MCF7. The data set can be described thus: Downregulation of ERalpha expression in human MCF7 cells assessed as protein stability by measuring reduction in half life measured up to 24 hrs in presence of cycloheximide by Western blotting analysis. Type of data set: functional, cell-based.

Here are results for 1 compound from ChEMBL document CHEMBL5131570, “Discovery of Potent Small-Molecule USP8 Inhibitors for the Treatment of Breast Cancer through Regulating ERα Expression” (J Med Chem, 2022).

The source made the active and inactive calls. The rule behind the calls is not given here.

What is called Kd is the constant that tells how readily two partners part at equilibrium. Low values mean tighter binding, high ones weaker binding.

In the case of `Cc1n[nH]c(C)c1Oc1c(O)cc(O)c2c(=O)cc(-c3ccc(N4CCN(c5ccccn5)CC4)cc3)oc12`, the inhibition entry in data set [1], in data set [3] and in data set [9] was “Active” each time. For the same compound, the Activity is 14.46% in the data set with MCF7 [2]; “Dde” in the data set with MCF7 [4]; “Dde” with MCF7 [6]; 3.45% in the data set on MCF7 [7]; “Non-Toxic” in data set [10]; 1.9% with MCF7 [13]. Further, the Activity entry in data set [14], in [15], in [16] and in data set [18] was “Non-Toxic” throughout. Also, the result with MCF7 [5], with MCF7 [11], in the data set with MCF7 [12], in the data set on MCF7 [17], with MCF7 [19] and in the data set with MCF7 [20] was Active. In addition, the dissociation constant Kd in data set [8] came to 4.7 µM. The Ratio IC50 in the data set listed under Homo sapiens stood at 49.
